US8569489B2 (A.B. Intelpharm Limited, priority 2007, dated 2013)
Structures can show the parent of a compound that is named as a salt. Where two headings read alike, the source gives them in different places.

Assays:
[1] = tested on: isolated guinea pig ileum (spasmogenic effect of histamine); test: Isolated guinea pig ileum, suppression of the spasmogenic effect of histamine; assay type: cell-based; conditions: histamine spasm, read-out: Antihistaminic activity, isolated ileum of guinea pig, IC50
Description: Study of the antihistaminic activity of the compounds on which a claim is made was done using known methodologies (Rukovodstvo po eksperimental'nomu izucheniyu novykh farmakologicheskikh veshchestv [Manual on experimental study of new pharmacological substances], Moscow, 2005, p. 489) on isolated guinea pig ileum (suppression of the spasmogenic effect of histamine) and on anesthetized guinea pigs (antagonism in relation to the bronchoconstrictor effect of histamine). In tests on intact animals, substances were administered intravenously (5 minutes before the administration of histamine) and orally (2 hours before the beginning of the study).

[2] = tested on: passive cutaneous anaphylaxis; test: Passive cutaneous anaphylaxis model in rats; assay type: in vivo, rat
Description: (Rukovodstvo po eksperimental'nomu izucheniyu novykh farmakologicheskikh veshchestv [Manual on experimental study of new pharmacological substances], Moscow, 2005, p. 511)

histamine-induced itch = test: Itching induced by instillation of histamine solution into the eye of conscious guinea pigs; assay type: in vivo, guinea pig; conditions: 3 mg/kg administered orally
Description: (Rukovodstvo po […] [Manual on experimental study of new pharmacological substances], Moscow, 2005, p. 511)

[3] = tested on: H1-histamine receptors (bronchoconstrictor effect of histamine); test: Anesthetized guinea pigs, antagonism of the bronchoconstrictor effect of histamine (histamine bronchospasm model); assay type: in vivo, guinea pig; conditions: for ED50: Cavia porcellus; for ED50 / Antihistaminic activity, guinea pigs in vivo, intravenous administration, ED50 / Antihistaminic activity, guinea pigs in vivo, peroral administration, ED50: anesthetized guinea pigs; for Duration of effective blockade of H1-histamine receptors: histamine bronchospasm model, oral dose of 3 mg/kg
Description: In tests on intact animals, substances were administered intravenously (5 minutes before the administration of histamine) and orally (2 hours before the beginning of the study).

mice [4] = conditions: mice perorally; literature value (footnotes * and **); cited from earlier work
mice [5] = test: Acute toxicity, mice perorally
[6] = pH of aqueous solution of salts; assay type: physicochemical
[7] = po, orally 2 hours before the study, read-out: Antihistaminic activity, guinea pigs in vivo, peroral administration, ED50
[8] = intravenous, 5 minutes before histamine, read-out: Antihistaminic activity, guinea pigs in vivo, intravenous administration, ED50
[9] = intravenous, 5 minutes before histamine
[10] = orally 2 hours before the study

Row | Structure (SMILES) | Acute toxicity, LD50 (mice [5]) | IC50 [1] | Antihistaminic activity, guinea pigs in vivo, intravenous administration, ED50 [3, 9] | Antihistaminic activity, guinea pigs in vivo, peroral administration, ED50 [3, 10] | other results
1 | O=C(O)COCCN1CCN(C(c2ccccc2)c2ccc(Cl)cc2)CC1 (stereo not drawn) [Cetirizine, reference compound] |  |  |  |  | IC50 ([1]; Cavia porcellus): 127 nM; Antiallergic effect, passive cutaneous anaphylactic model ([2]; dose 3 mg/kg): moderate and similar antiallergic effect; Duration of the protective effect in the histamine-induced itch model (histamine-induced itch): diminishes significantly after 48 hours and disappears altogether after 72 hours; ED50 [3, 7]: 0.2 mg/kg; ED50 [3, 8]: 0.07 mg/kg; Duration of effective blockade of H1-histamine receptors [3]: 48 h
2 | CN1CCCC(n2nc(Cc3ccc(Cl)cc3)c3ccccc3c2=O)CC1 (stereo not drawn) [Azelastine, reference compound] |  |  |  |  | Acute toxicity, LD50 (mice [4]): 124-139** mg/kg; Duration of the protective effect in the histamine-induced itch model (histamine-induced itch): diminishes significantly after 48 hours and disappears altogether after 72 hours; ED50 [3, 7]: 0.015 mg/kg; ED50 [3, 8]: 0.05 mg/kg; Duration of effective blockade of H1-histamine receptors [3]: 48 h
3 | Cl.Cl.Cn1c(=O)n(CCCCN2CCN(C(c3ccc(F)cc3)c3ccc(F)cc3)CC2)c(=O)c2c1ncn2Cc1ccccc1 [I-l] | >1000.0 mg/kg | 185 nM | 0.5 mg/kg | 0.5 mg/kg | 
4 | Cl.Cl.Cn1c(=O)n(CCCCN2CCN(C(c3ccccc3)c3ccccc3)CC2)c(=O)c2[nH]cnc21 [I-s, 1-[4-(benzhydryl-4-piperazinyl-1)butyl]-3-methylxanthine dihydrochloride] | >750.0 mg/kg | 26 nM | 0.2 mg/kg | 0.3 mg/kg | 
5 | Cn1c(=O)[nH]c(=O)c2c1ncn2CCCCN1CCN(C(c2ccccc2)c2ccccc2)CC1 [II-g, 3-methyl-7-[4-(benzhydryl-4-piperazinyl-1)butyl]xanthine] | 1300.0 mg/kg | 18 nM | 0.02 mg/kg | 0.02 mg/kg | Antiallergic effect, passive cutaneous anaphylactic model ([2]; dose 1 mg/kg): moderate and similar antiallergic effect; Duration of the protective effect in the histamine-induced itch model (histamine-induced itch): remains at a stable level for 2 days and decreases only after 72 hours; Duration of effective blockade of H1-histamine receptors [3]: 72 h
6 | Cl.Cl.Cn1c(=O)n(CCCCN2CCN(C(c3ccccc3)c3ccccc3)CC2)c(=O)c2c1ncn2Cc1ccccc1 [I-i] | 400.0 mg/kg | 111 nM | 0.2 mg/kg | 0.3 mg/kg | 
7 | Cn1c(=O)[nH]c(=O)c2c1ncn2CCCCN1CCN(C(c2ccccc2)c2ccccc2)CC1 [Dihydrochloride, 7-/4-(4-benzhydrylpiperazinyl-1)butyl/-3-methylxanthine] |  |  |  |  | pH of aqueous solution [6]: 2.45
8 | Cl.Cl.Cn1c(=O)n(CCCN2CCN(C(c3ccc(F)cc3)c3ccc(F)cc3)CC2)c(=O)c2c1ncn2Cc1ccccc1 [I-d] | >250.0 mg/kg | 114 nM | 0.6 mg/kg | 3.0 mg/kg | 
9 | Cl.Cl.Cn1cnc2c1c(=O)n(CCCCN1CCN(C(c3ccccc3)c3ccccc3)CC1)c(=O)n2C [I-v] | >1000.0 mg/kg | 32 nM | 0.2 mg/kg | >1.5 mg/kg | 
10 | Cl.Cl.Cn1c(=O)c2c(ncn2CCCCN2CCN(C(c3ccccc3)c3ccccc3)CC2)n(C)c1=O [II-f] | 750.0 mg/kg | 17 nM | 0.1 mg/kg | <1.5 mg/kg | 
11 | Cl.Cl.Cn1c(=O)n(CCCN2CCN(C(c3ccccc3)c3ccccc3)CC2)c(=O)c2[nH]cnc21 [I-q] | >1000.0 mg/kg | 42 nM | 0.4 mg/kg |  | 
12 | Cn1c(=O)[nH]c(=O)c2c1ncn2CCCCN1CCN(C(c2ccccc2)c2ccccc2)CC1 [Oxalate, 7-/4-(4-benzhydrylpiperazinyl-1)butyl/-3-methylxanthine] |  |  |  |  | pH of aqueous solution [6]: 3.44
13 | Cl.Cl.Cn1c(=O)n(CCCCN2CCN(C(c3ccccc3)c3ccc(Cl)cc3)CC2)c(=O)c2[nH]cnc21 (stereo not drawn) [I-t] | >1000.0 mg/kg | 104 nM | 0.3 mg/kg |  | 
14 | Cl.Cl.Cn1c(=O)n(CCCCN2CCN(C(c3ccc(F)cc3)c3ccc(F)cc3)CC2)c(=O)c2[nH]cnc21 [I-u] | >1000.0 mg/kg | 51 nM | 0.7 mg/kg | >3.0 mg/kg | 
15 | Cl.Cl.Cn1c(=O)n(CCCCCN2CCN(C(c3ccc(F)cc3)c3ccc(F)cc3)CC2)c(=O)c2c1ncn2Cc1ccccc1 [I-n] | 250 mg/kg | 253 nM | 1.2 mg/kg | 3.0 mg/kg | 
16 | Cl.Cl.Cn1c(=O)c2c(ncn2CCCN2CCN(C(c3ccccc3)c3ccccc3)CC2)n(C)c1=O [II-d] | >1000.0 mg/kg | 12 nM | 0.05 mg/kg |  | 
17 | Cn1c(=O)[nH]c(=O)c2c1ncn2CCCCN1CCN(C(c2ccccc2)c2ccccc2)CC1.O=C(O)CCC(=O)O [Succinate, 7-/4-(4-benzhydrylpiperazinyl-1)butyl/-3-methylxanthine succinate] |  |  |  |  | pH of aqueous solution [6]: 4.85; Thermal stability (Thermal stability): good thermal stability
